{"source": "patent US20120277209A1", "about": "“PYRAZINE COMPOUNDS AS PHOSPHODIESTERASE 10 INHIBITORS” (Amgen Inc., priority 2009, published 2012)"}
{"target": "PDE10 (UniProt Q9Y233)", "assay": "PDE10 enzyme inhibition, IMAP TR-FRET assay (MPDE10A7 Enzyme Activity and Inhibition)", "type": "biochemical", "settings": "IC50 class against PDE10; read-out: IC50", "method_in_brief": "(§1)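 IMAP TR-FRET read-out of PDE10 hydrolysis of fluorescein-cAMP or -cGMP (60 min, room temperature), after a 30 min compound-enzyme preincubation. Enzyme source was PDE10A or tissue homogenate. Averaged IC50s are reported as five range classes.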", "units": {"IC50": "nM"}}
{"smiles": "O=C(c1ccc(Oc2nccnc2C2=CCOCC2)cc1)c1nc2ncccc2[nH]1", "note": "[Example 131, (4-(3-(3,6-dihydro-2H-pyran-4-yl)pyrazin-2-yloxy)phenyl)(1H-imidazo[4,5-b]pyridin-2-yl)methanone]", "IC50": "25 to 100"}
{"smiles": "Fc1cc(Oc2nccnc2Cl)ccc1Nc1nc2ccccc2s1", "note": "[Example 103, N-(4-(3-chloropyrazin-2-yloxy)-2-fluorophenyl)benzo[d]thiazol-2-amine]", "IC50": "1000 to 5000"}
{"smiles": "COc1cc(-c2nccnc2Oc2ccc(Nc3nc4ccccc4s3)cc2)ccn1", "note": "[Example 152, N-(4-(3-(2-methoxypyridin-4-yl)pyrazin-2-yloxy)phenyl)benzo[d]thiazol-2-amine]", "IC50": "< 25"}
{"smiles": "COc1ccc(-c2nccnc2Oc2ccc(C(=O)c3nc4ccccc4[nH]3)cc2)cn1", "note": "[Example 121, (1H-benzo[d]imidazol-2-yl)(4-(3-(6-methoxypyridin-3-yl)pyrazin-2-yloxy)phenyl)methanone]", "IC50": "< 25"}
{"smiles": "COc1ncc(F)cc1-c1nccnc1Oc1ccc(C(=O)c2nc3ccccc3[nH]2)cc1", "note": "[Example 116, (1H-benzo[d]imidazol-2-yl)(4-(3-(5-fluoro-2-methoxypyridin-3-yl)pyrazin-2-yloxy)phenyl)methanone]", "IC50": "< 25"}
{"smiles": "O=C1CN(c2nccnc2Oc2ccc(Nc3nc4ccccc4s3)cc2)CCN1", "note": "[Example 90, 4-(3-(4-(benzo[d]thiazol-2-yl-amino)phenoxy)pyrazin-2-yl)-piperazin-2-one]", "IC50": "< 25"}
{"smiles": "CC(C)N1CCN(c2nccnc2Oc2ccc(Nc3nc4ccccc4s3)cc2)CC1=O", "note": "[Example 91, 4-(3-(4-(benzo[d]thiazol-2-yl-amino)phenoxy)pyrazin-2-yl)-1-isopropylpiperazin-2-one]", "IC50": "25 to 100"}
{"smiles": "COc1cnccc1-c1nccnc1Oc1ccc(C(=O)c2nc3ccccc3[nH]2)cc1", "note": "[Example 113, (1H-benzo[d]imidazol-2-yl)(4-(3-(3-methoxypyridin-4-yl)pyrazin-2-yloxy)phenyl)methanone]", "IC50": "25 to 100"}
{"smiles": "[2H]C([2H])([2H])C(=O)N1CCC(c2nccnc2Oc2ccc(C(=O)c3nc4ccccc4[nH]3)cc2)CC1", "note": "[Example 231, 1-(4-(3-(4-(1H-benzo[d]imidazole-2-carbonyl)phenoxy)pyrazin-2-yl)piperidin-1-yl)perdeuteroethanone]", "IC50": "< 25"}
{"smiles": "CC(F)C(=O)N1CCC(c2nccnc2Oc2ccc(Nc3nc4ccccc4s3)cc2)CC1", "note": "(stereo not shown) [Example 235, 1-(4-(3-(4-(benzo[d]thiazol-2-ylamino)phenoxy)pyrazin-2-yl)piperidin-1-yl)-2-fluoropropan-1-one]", "IC50": "< 25"}
{"smiles": "c1ccc2sc(Nc3ccc(Oc4nccnc4-c4ccc(N5CCOCC5)nc4)cc3)nc2c1", "note": "[Example 138, N-(4-(3-(6-morpholinopyridin-3-yl)pyrazin-2-yloxy)phenyl)benzo[d]thiazol-2-amine]", "IC50": "100 to 250"}
{"smiles": "COc1cc(-c2nccnc2Oc2ccc(C(=O)c3nc4ccccc4[nH]3)cc2)ccn1", "note": "[Example 120, (1H-benzo[d]imidazol-2-yl)(4-(3-(2-methoxypyridin-4-yl)pyrazin-2-yloxy)phenyl)methanone]", "IC50": "< 25"}
{"smiles": "COc1ncccc1-c1nccnc1Oc1ccc(Nc2nc3cc(F)ccc3s2)cc1", "note": "[Example 154, 5-fluoro-N-(4-(3-(2-methoxypyridin-3-yl)pyrazin-2-yloxy)phenyl)benzo[d]thiazol-2-amine]", "IC50": "25 to 100"}
{"smiles": "OC1CCCN(c2nccnc2Oc2ccc(Nc3nc4ccccc4s3)cc2)C1", "note": "(stereo not shown) [Example 69, 1-(3-(4-(benzo[d]thiazol-2-ylamino)phenoxy)pyrazin-2-yl)piperidin-3-ol]", "IC50": "< 25"}
{"smiles": "Fc1cccc2nc(Nc3ccc(Oc4cnccn4)cc3)sc12", "note": "[Example 217, 7-fluoro-N-(4-(pyrazin-2-yloxy)phenyl)benzo[d]thiazol-2-amine]", "IC50": "1000 to 5000"}
{"smiles": "CN(C)CCOc1nccnc1Oc1ccc(C(=O)c2nc3ccccc3[nH]2)cc1", "note": "[Example 174, (1H-benzo[d]imidazol-2-yl)(4-(3-(2-(dimethylamino)ethoxy)pyrazin-2-yloxy)phenyl)methanone]", "IC50": "100 to 250"}
{"smiles": "Cc1ccc(-c2nccnc2Oc2ccc(Nc3nc4ccccc4s3)cc2)cn1", "note": "[Example 140, N-(4-(3-(6-methylpyridin-3-yl)pyrazin-2-yloxy)phenyl)benzo[d]thiazol-2-amine]", "IC50": "< 25"}
{"smiles": "COC1CC=C(c2nccnc2Oc2ccc(C(=O)c3nc4ccccc4[nH]3)cc2)CC1", "note": "(stereo not shown) [Example 187, 1H-Benzimidazol-2-yl(4-((3-(4-methoxy-1-cyclohexen-1-yl)-2-pyrazinyl)oxy)phenyl)methanone]", "IC50": "< 25"}
{"smiles": "CC(C)(O)[C@@H]1CCCN1c1nccnc1Oc1ccc(Nc2nc3ccccc3s2)cc1", "note": "[Example 59, (S)-2-(1-(3-(4-(BENZO[D]THIAZOL-2-YLAMINO)PHENOXY)PYRAZIN-2-YL)PYRROLIDIN-2-YL)PROPAN-2-OL]", "IC50": "< 25"}
{"smiles": "COCC1CCN(c2nccnc2Oc2ccc(Nc3nc4ccccc4s3)cc2)CC1", "note": "[Example 87, N-(4-(3-(4-(methoxymethyl)-piperidin-1-yl)pyrazin-2-yl-oxy)phenyl)benzo[d]thiazol-2-amine]", "IC50": "25 to 100"}
{"smiles": "O=C(c1ccc(Oc2nccnc2OCc2cccnc2)cc1)c1nc2ccccc2[nH]1", "note": "[Example 179, (1H-benzo[d]imidazol-2-yl)(4-(3-(pyridin-3-ylmethoxy)pyrazin-2-yloxy)phenyl)methanone]", "IC50": "100 to 250"}
{"smiles": "O=C(c1ccc(Oc2nccnc2-c2ccnc3ccccc23)cc1)c1nc2ccccc2[nH]1", "note": "[Example 129, (1H-benzo[d]imidazol-2-yl)(4-(3-(quinolin-4-yl)pyrazin-2-yloxy)phenyl)methanone]", "IC50": "25 to 100"}
{"smiles": "CC(C)(C)OC(=O)N1CC=C(c2nccnc2Oc2ccc(Nc3nc4ccccc4s3)c(F)c2)CC1", "note": "[Example 159, tert-butyl 4-(3-(4-(benzo[d]thiazol-2-ylamino)-3-fluorophenoxy)pyrazin-2-yl)-5,6-dihydropyridine-1(2H)-carboxylate]", "IC50": "< 25"}
{"smiles": "COC(=O)C1(c2nccnc2Oc2ccc(Nc3nc4ccccc4s3)cc2)CCOCC1", "note": "[Example 212, methyl 4-(3-(4-(benzo[d]thiazol-2-ylamino)phenoxy)pyrazin-2-yl)tetrahydro-2H-pyran-4-carboxylate]", "IC50": "< 25"}
{"smiles": "CN(C)CC(=O)N1CCC(c2nccnc2Oc2ccc(Nc3nc4ccccc4s3)cc2)CC1", "note": "[Example 246, 1-(4-(3-(4-(benzo[d]thiazol-2-ylamino)phenoxy)pyrazin-2-yl)piperidin-1-yl)-2-(dimethylamino) ethanone]", "IC50": "< 25"}
{"smiles": "c1ccc2sc(Nc3ccc(Oc4nccnc4-c4cccc5ncccc45)cc3)nc2c1", "note": "[Example 147, N-(4-(3-(quinolin-5-yl)pyrazin-2-yloxy)phenyl)benzo[d]thiazol-2-amine]", "IC50": "25 to 100"}
{"smiles": "O=C(c1ccc(Oc2nccnc2C2CCCC2)cc1)c1nc2ccccc2[nH]1", "note": "[Example 220, (1H-benzo[d]imidazol-2-yl)(4-(3-cyclopentylpyrazin-2-yloxy)phenyl)methanone]", "IC50": "25 to 100"}
{"target": "PDE10 (UniProt Q9Y233)", "assay": "PDE10 enzyme inhibition, IMAP TR-FRET assay (MPDE10A7 Enzyme Activity and Inhibition)", "type": "biochemical", "settings": "PDE10 enzyme inhibition; average IC50 data for each compound; read-out: Average IC50", "method_in_brief": "as §1", "units": {"IC50": "nM"}}
{"smiles": "O=C(c1ccc(Oc2nccnc2-c2cccnc2)cc1)c1nc2ccccc2[nH]1", "note": "[drawing 754]", "IC50": 8.05}
{"smiles": "c1ccc2sc(Nc3ccc(Oc4nccnc4[C@H]4CCCOC4)cc3)nc2c1", "note": "(stereo in doubt)", "IC50": 2.43}
{"smiles": "O=C(c1ccc(Oc2nccnc2C(=O)O)cc1)c1nc2ccccc2[nH]1", "IC50": 556}
{"smiles": "O=C1CCCC(c2nccnc2Oc2ccc(Nc3nc4ccccc4s3)cc2)C1", "note": "(stereo not shown)", "IC50": 1.21}
{"smiles": "COc1ncc(-c2nccnc2Oc2ccc(Nc3nc4ccccc4s3)cc2)cn1", "note": "[drawing 783]", "IC50": 23.2}
{"smiles": "Cc1ccc(-c2nccnc2Oc2ccc(Nc3nc4ccccc4s3)cc2)cn1", "note": "[drawing 764]", "IC50": 11.3}
{"smiles": "FC1(c2nccnc2Oc2ccc(Nc3nc4ccccc4s3)cc2)CCOCC1", "note": "[drawing 927]", "IC50": 12.2}
{"smiles": "Fc1ccc2nc(Nc3ccc(Oc4nccnc4C4CCOCC4)cc3)sc2c1", "note": "[drawing 872]", "IC50": 0.661}
{"smiles": "O=C(c1ccc(Oc2nccnc2N2CCC[C@H](CCO)C2)cc1)c1nc2ccccc2[nH]1", "note": "(stereo in doubt)", "IC50": 1.86}
{"smiles": "C[C@@H](F)C(=O)N1CCC(c2nccnc2Oc2ccc(C(=O)c3nc4ccccc4[nH]3)cc2)CC1", "note": "(stereo in doubt)", "IC50": 0.132}
{"smiles": "CC(C)COc1nccnc1Oc1ccc(C(=O)c2nc3ccccc3[nH]2)cc1", "note": "[drawing 845]", "IC50": 26.2}
{"smiles": "Cc1cc(-c2nccnc2Oc2ccc(C(=O)c3nc4ccccc4[nH]3)cc2)ccn1", "note": "[drawing 726]", "IC50": 5.67}
{"smiles": "COC(=O)C1(c2nccnc2Oc2ccc(Nc3nc4ccccc4s3)cc2)CCN(C(=O)OC(C)(C)C)CC1", "note": "[drawing 869]", "IC50": 245}
{"smiles": "Fc1cc(Oc2nccnc2Cl)ccc1Nc1nc2ccccc2s1", "note": "[drawing 836]", "IC50": 614}
{"smiles": "OC1(c2nccnc2Oc2ccc(Nc3nc4ccccc4s3)cc2)CCOCC1", "note": "[drawing 902]", "IC50": 0.902}
{"smiles": "O=C(c1ccc(Oc2nccnc2C2=CCCOC2)cc1)c1nc2ccccc2[nH]1", "IC50": 16.1}
{"smiles": "N#Cc1cccc(-c2nccnc2Oc2ccc(C(=O)c3nc4ccccc4[nH]3)cc2)c1", "note": "[drawing 756]", "IC50": 42}
{"smiles": "COC(=O)C1(c2nccnc2Oc2ccc(Nc3nc4ccccc4s3)cc2)CCOCC1", "note": "[drawing 871]", "IC50": 6.28}
{"smiles": "COC[C@@H]1CCN(c2nccnc2Oc2ccc(Nc3nc4ccccc4s3)cc2)C1", "note": "(stereo in doubt)", "IC50": 22.6}
{"smiles": "COC(=O)N1CCC(c2nccnc2Oc2ccc(C(=O)c3nc4ccccc4[nH]3)cc2)CC1", "note": "[drawing 971]", "IC50": 0.0615}
{"smiles": "O[C@H]1CCC[C@@H](c2nccnc2Oc2ccc(Nc3nc4ccccc4s3)cc2)C1", "note": "[drawing 903]", "IC50": 1.33}
{"smiles": "OCC1CCCCN1c1nccnc1Oc1ccc(Nc2nc3ccccc3s2)cc1", "note": "(stereo not shown) [drawing 730]", "IC50": 21.7}
{"smiles": "O=C1CCCC(c2nccnc2Oc2ccc(C(=O)c3nc4ccccc4[nH]3)cc2)C1", "note": "(stereo not shown)", "IC50": 1.33}
{"smiles": "O=C(c1ccc(Oc2nccnc2[C@H]2CCC[C@@H](O)C2)cc1)c1nc2ccccc2[nH]1", "note": "[drawing 909]", "IC50": 0.961}
{"target": "PDE10 (UniProt Q9Y233)", "assay": "PDE10 enzyme inhibition, IMAP TR-FRET assay (MPDE10A7 Enzyme Activity and Inhibition)", "type": "biochemical", "settings": "PDE10 enzyme inhibition; chiral compounds separated from racemic mixtures; read-out: IC50", "method_in_brief": "as §1", "units": {"IC50": "nM"}}
{"smiles": "N#C[C@@H]1CCN(c2nccnc2Oc2ccc(C(=O)c3nc4ccccc4[nH]3)cc2)C1", "note": "[Example 261, (R)-1-(3-(4-(1H-benzo[d]imidazole-2-carbonyl)phenoxy)pyrazin-2-yl)pyrrolidine-3-carbonitrile]", "IC50": "< 25"}
